The source made the active and inactive calls. The rule behind the calls is not given here.
Key:
[1] = target: T1, von Hippel-Lindau disease tumor suppressor/Dual specificity mitogen-activated protein kinase kinase 2/Dual specificity mitogen-activated protein kinase kinase 1 (Homo sapiens) (UniProt P36507+Q02750+P40337); assay: Protac activity against VHL/MEK1/2 in human SK-MEL-28 cells harboring with BRAF V600E variant assessed as reduction in phosphorylation of MEK at S218/222 residues after 24 hrs by Western blot analysis; type: cell-based
[2] = target: T1, von Hippel-Lindau disease tumor suppressor/Dual specificity mitogen-activated protein kinase kinase 2/Dual specificity mitogen-activated protein kinase kinase 1 (Homo sapiens); assay: Protac activity against VHL/MEK1/2 in human HT-29 cells harboring with BRAF V600E variant assessed as reduction in phosphorylation of ERK at T202/Y204 residues at 0.1 to 0.3 uM by Western blot analysis; type: cell-based; conditions: TDE = time-dependent effect
[3] = target: von Hippel-Lindau disease tumor suppressor/Dual specificity mitogen-activated protein kinase kinase 1 (Homo sapiens, UniProt Q02750+P40337, V600E); assay: (§1) Protac activity against VHL/MEK1 in human COLO205 cells harboring BRAF V600E variant assessed as degradation of MEK1 after 24 hrs by Western blot analysis; type: cell-based
[4] = target: T2, von Hippel-Lindau disease tumor suppressor/Dual specificity mitogen-activated protein kinase kinase 1 (Homo sapiens) (UniProt Q02750+P40337); assay: as §1; type: cell-based
[5] = target: T1, von Hippel-Lindau disease tumor suppressor/Dual specificity mitogen-activated protein kinase kinase 2/Dual specificity mitogen-activated protein kinase kinase 1 (Homo sapiens); assay: Protac activity against VHL/MEK1/2 in human SK-MEL-28 cells harboring with BRAF V600E variant assessed as reduction in phosphorylation of ERK at T202/Y204 residues after 24 hrs by Western blot analysis; type: cell-based
[6] = target: T3, von Hippel-Lindau disease tumor suppressor/Dual specificity mitogen-activated protein kinase kinase 2 (Homo sapiens) (UniProt P36507+P40337); assay: Protac activity against VHL/MEK2 in human HT-29 cells harboring with BRAF V600E variant assessed as degradation of MEK2 at 0.1 to 0.3 uM by Western blot analysis; type: cell-based; conditions: TDE = time-dependent effect
[7] = Maximum drug concentration in Swiss albino mouse plasma at 50 mg/kg, ip measured after 0.5 hrs by LC-MS/MS analysis; type: ADME, organism-based; parameters: dose 50 mg/kg, route intraperitoneal
[8] = Ratio of Plasma concentration in Swiss albino mouse at 50 mg/kg, ip measured after 8 hrs to GI50 for antiproliferative activity against human COLO205 cells; type: organism-based; conditions: in vivo
[9] = target: T1, von Hippel-Lindau disease tumor suppressor/Dual specificity mitogen-activated protein kinase kinase 2/Dual specificity mitogen-activated protein kinase kinase 1 (Homo sapiens); assay: (§2) Protac activity against VHL/MEK1/2 in human SK-MEL-28 cells harboring with BRAF V600E variant assessed as phosphorylation of MEK at S218/222 residues at 0.3 uM pretreated with NEDD8-activating enzyme inhibitor, MLN4924 for 2 hrs followed by incubation with compound for 10 hrs by Western blot analysis; type: cell-based
[10] = target: T1, von Hippel-Lindau disease tumor suppressor/Dual specificity mitogen-activated protein kinase kinase 2/Dual specificity mitogen-activated protein kinase kinase 1 (Homo sapiens); assay: Protac activity against VHL/MEK1/2 in human HT-29 cells harboring with BRAF V600E variant assessed as phosphorylation of ERK at T202/Y204 residues at 0.3 uM pretreated with MEK1/2 inhibitor, PD0325901 for 2 hrs followed by incubation with compound for 10 hrs by Western blot analysis; type: cell-based
[11] = target: T3, von Hippel-Lindau disease tumor suppressor/Dual specificity mitogen-activated protein kinase kinase 2 (Homo sapiens); assay: (§3) Protac activity against VHL/MEK2 in human SK-MEL-28 cells harboring BRAF V600E variant assessed as degradation of MEK2 after 24 hrs by Western blot analysis; type: cell-based
[12] = target: von Hippel-Lindau disease tumor suppressor/Dual specificity mitogen-activated protein kinase kinase 2 (Homo sapiens, UniProt P36507+P40337, V600E); assay: as §3; type: cell-based
[13] = target: T1, von Hippel-Lindau disease tumor suppressor/Dual specificity mitogen-activated protein kinase kinase 2/Dual specificity mitogen-activated protein kinase kinase 1 (Homo sapiens); assay: Protac activity against VHL/MEK1/2 in human HT-29 cells harboring with BRAF V600E variant assessed as phosphorylation of ERK at T202/Y204 residues at 0.3 uM pretreated with proteasome inhibitor, MG-132 for 2 hrs followed by incubation with compound for 10 hrs by Western blot analysis; type: cell-based
[14] = target: T1, von Hippel-Lindau disease tumor suppressor/Dual specificity mitogen-activated protein kinase kinase 2/Dual specificity mitogen-activated protein kinase kinase 1 (Homo sapiens); assay: Protac activity against VHL/MEK1/2 in human UACC257 cells harboring with BRAF V600E variant assessed as reduction in phosphorylation of MEK at S218/222 residues after 24 hrs by Western blot analysis; type: cell-based
[15] = target: T3, von Hippel-Lindau disease tumor suppressor/Dual specificity mitogen-activated protein kinase kinase 2 (Homo sapiens); assay: Protac activity against VHL/MEK2 in human COLO205 cells harboring with BRAF V600E variant assessed as degradation of MEK2 at 3 to 5 uM after 24 hrs by Western blot analysis; type: cell-based
COLO 205 = assay: Antiproliferative activity against human COLO205 cells assessed as reduction in cell growth after 3 days by WST8 assay; type: functional
[16] = target: T2, von Hippel-Lindau disease tumor suppressor/Dual specificity mitogen-activated protein kinase kinase 1 (Homo sapiens); assay: as §2, with “VHL/MEK1” for “VHL/MEK1/2”, “HT-29” for “SK-MEL-28”, “degradation” for “phosphorylation”, “MEK1 by measuring MEK1 protein level” for “MEK at S218/222 residues”; type: cell-based
[17] = target: T2, von Hippel-Lindau disease tumor suppressor/Dual specificity mitogen-activated protein kinase kinase 1 (Homo sapiens); assay: Protac activity against VHL/MEK1 in human SK-MEL-28 cells harboring with BRAF V600E variant assessed as degradation of MEK1 by measuring reduction in MEK1 protein level at 0.3 uM after 8 hrs by Western blot analysis relative to control; type: cell-based; parameters: scale not given: the % may be the effect or the level left
[18] = target: T2, von Hippel-Lindau disease tumor suppressor/Dual specificity mitogen-activated protein kinase kinase 1 (Homo sapiens); assay: Protac activity against VHL/MEK1 in human HT-29 cells harboring with BRAF V600E variant assessed as degradation of MEK1 by measuring reduction in MEK1 protein level at 0.5 uM after 24 hrs by Western blot analysis relative to control; type: cell-based; parameters: scale not given: the % may be the effect or the level left
UACC-257 = assay: Antiproliferative activity against human UACC257 cells assessed as reduction in cell growth after 3 days by MTT assay; type: functional
[19] = Plasma concentration in Swiss albino mouse at 50 mg/kg, ip measured after 8 hrs by LC-MS/MS analysis; type: ADME, organism-based
[20] = target: T3, von Hippel-Lindau disease tumor suppressor/Dual specificity mitogen-activated protein kinase kinase 2 (Homo sapiens); assay: as §2, with “VHL/MEK2” for “VHL/MEK1/2”, “HT-29” for “SK-MEL-28”, “degradation” for “phosphorylation”, “MEK2 by measuring MEK2 protein level” for “MEK at S218/222 residues”; type: cell-based
SK-MEL-28 = assay: Inhibition of colony formation in human SK-MEL-28 cells at 10 to 100 nM supplemented with fresh medium containing compound every 3 days for 14 days by crystal violet staining based assay; type: functional, cell-based
[21] = target: T1, von Hippel-Lindau disease tumor suppressor/Dual specificity mitogen-activated protein kinase kinase 2/Dual specificity mitogen-activated protein kinase kinase 1 (Homo sapiens); assay: Protac activity against VHL/MEK1/2 in human HT-29 cells harboring with BRAF V600E variant assessed as phosphorylation of MEK at S218/222 residues at 0.3 uM pretreated with VHL ligand, VH 032 for 2 hrs followed by incubation with compound for 10 hrs by Western blot analysis; type: cell-based
[22] = target: T1, von Hippel-Lindau disease tumor suppressor/Dual specificity mitogen-activated protein kinase kinase 2/Dual specificity mitogen-activated protein kinase kinase 1 (Homo sapiens); assay: Protac activity against VHL/MEK1/2 in human SK-MEL-28 cells harboring with BRAF V600E variant assessed as reduction in phosphorylation of ERK at T202/Y204 residues at 0.1 to 0.3 uM by Western blot analysis; type: cell-based; conditions: TDE = time-dependent effect
[23] = target: T2, von Hippel-Lindau disease tumor suppressor/Dual specificity mitogen-activated protein kinase kinase 1 (Homo sapiens); assay: Protac activity against VHL/MEK1 in human HT-29 cells harboring with BRAF V600E variant assessed as degradation of MEK1 by measuring MEK1 protein level at 0.3 uM pretreated with proteasome inhibitor, MG-132 for 2 hrs followed by incubation with compound for 10 hrs by Western blot analysis; type: cell-based
[24] = target: T1, von Hippel-Lindau disease tumor suppressor/Dual specificity mitogen-activated protein kinase kinase 2/Dual specificity mitogen-activated protein kinase kinase 1 (Homo sapiens); assay: Protac activity against VHL/MEK1/2 in human HT-29 cells harboring with BRAF V600E variant assessed as reduction in phosphorylation of MEK at S218/222 residues at 0.3 uM incubated for 6 days by Western blot analysis; type: cell-based
[25] = target: T1, von Hippel-Lindau disease tumor suppressor/Dual specificity mitogen-activated protein kinase kinase 2/Dual specificity mitogen-activated protein kinase kinase 1 (Homo sapiens); assay: Protac activity against VHL/MEK1/2 in human SK-MEL-28 cells harboring with BRAF V600E variant assessed as phosphorylation of MEK at S218/222 residues at 0.3 uM pretreated with proteasome inhibitor, MG-132 for 2 hrs followed by incubation with compound for 10 hrs by Western blot analysis; type: cell-based

T2 sequence (P40337 whole entry, looked up): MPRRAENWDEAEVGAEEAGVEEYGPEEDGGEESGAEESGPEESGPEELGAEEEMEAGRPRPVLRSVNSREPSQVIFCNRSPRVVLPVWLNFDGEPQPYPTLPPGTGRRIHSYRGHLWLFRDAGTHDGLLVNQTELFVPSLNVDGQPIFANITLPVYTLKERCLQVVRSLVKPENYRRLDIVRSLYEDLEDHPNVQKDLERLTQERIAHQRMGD
T2 sequence (Q02750 whole entry, looked up): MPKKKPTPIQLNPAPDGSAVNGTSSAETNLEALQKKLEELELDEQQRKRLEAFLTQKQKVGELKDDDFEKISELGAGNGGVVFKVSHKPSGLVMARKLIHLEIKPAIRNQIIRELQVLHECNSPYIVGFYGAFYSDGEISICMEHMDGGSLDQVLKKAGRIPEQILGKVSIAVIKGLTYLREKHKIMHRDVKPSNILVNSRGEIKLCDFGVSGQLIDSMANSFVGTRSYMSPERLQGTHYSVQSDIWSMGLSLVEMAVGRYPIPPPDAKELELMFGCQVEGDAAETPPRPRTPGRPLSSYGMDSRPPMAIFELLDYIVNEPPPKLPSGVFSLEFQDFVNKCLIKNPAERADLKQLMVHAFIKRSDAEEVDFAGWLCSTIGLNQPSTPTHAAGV
T1 sequence (P36507 whole entry, looked up): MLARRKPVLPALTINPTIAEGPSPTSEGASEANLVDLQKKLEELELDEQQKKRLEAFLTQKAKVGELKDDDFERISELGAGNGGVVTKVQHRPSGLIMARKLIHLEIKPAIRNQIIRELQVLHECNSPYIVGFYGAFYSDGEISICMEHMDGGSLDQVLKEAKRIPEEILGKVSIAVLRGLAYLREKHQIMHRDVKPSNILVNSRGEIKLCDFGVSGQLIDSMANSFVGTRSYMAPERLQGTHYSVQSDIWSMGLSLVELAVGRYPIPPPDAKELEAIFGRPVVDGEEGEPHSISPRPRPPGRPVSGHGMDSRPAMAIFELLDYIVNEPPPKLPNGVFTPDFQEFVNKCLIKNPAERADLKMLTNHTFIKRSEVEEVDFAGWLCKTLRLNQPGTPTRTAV
T1 sequence (P40337 whole entry, looked up): as the sequence (P40337 whole entry, looked up) above
T1 sequence (Q02750 whole entry, looked up): as the sequence (Q02750 whole entry, looked up) above
T3 sequence (P36507 whole entry, looked up): as the sequence (P36507 whole entry, looked up) above
T3 sequence (P40337 whole entry, looked up): as the sequence (P40337 whole entry, looked up) above
Chain of von Hippel-Lindau disease tumor suppressor/Dual specificity mitogen-activated protein kinase kinase 1 (P40337 whole entry, looked up, stated change not applied): as the sequence (P40337 whole entry, looked up) above
Chain of von Hippel-Lindau disease tumor suppressor/Dual specificity mitogen-activated protein kinase kinase 1 (Q02750 whole entry, looked up, stated change not applied): as the sequence (Q02750 whole entry, looked up) above
Chain of von Hippel-Lindau disease tumor suppressor/Dual specificity mitogen-activated protein kinase kinase 2 (P36507 whole entry, looked up, stated change not applied): as the sequence (P36507 whole entry, looked up) above
Chain of von Hippel-Lindau disease tumor suppressor/Dual specificity mitogen-activated protein kinase kinase 2 (P40337 whole entry, looked up, stated change not applied): as the sequence (P40337 whole entry, looked up) above

Structure (SMILES): Cc1ncsc1-c1ccc([C@H](C)NC(=O)[C@@H]2C[C@@H](O)CN2C(=O)[C@@H](NC(=O)CCCCCCCCCCNCCCONC(=O)c2ccc(F)c(F)c2Nc2ccc(I)cc2F)C(C)(C)C)cc1
- Activity [1]: Dose-dependent effect
- Activity [2]: Tde
- DC50 [3]: 18 nM
- Activity [4]: Dose-dependent effect
- Activity [5]: Dose-dependent effect
- Activity [6]: Tde
- Cmax [7]: 1400 nM
- Ratio [8]: 3 to 20
- Activity [9]: inactive
- Activity [10]: inactive
- Activity [11]: Dose-dependent effect
- DC50 [12]: 9.3 nM
- Activity [13]: inactive
- Activity [14]: Dose-dependent effect
- Activity [15]: Active
- growth inhibition (GI) (COLO 205): Dose-dependent effect
- GI50 (COLO 205; COLO 205, 72 h): 30 to 200 nM
- Activity [16]: inactive
- Activity [17]: > 80%
- Activity [18]: > 80%
- growth inhibition (GI) (UACC-257): Dose-dependent effect
- GI50 (UACC-257; UACC-257, 72 h): 30 to 200 nM
- concentration at 8 h [19]: 710 nM
- Activity [20]: inactive
- inhibition (SK-MEL-28): Active
- Activity [21]: inactive
- Activity [22]: Tde
- Activity [23]: inactive
- Activity [24]: Active
- Activity [25]: inactive
